The results in this text go back to patent publication US12162855B2, “Tetrahydroquinolino derivatives for the treatment of metastatic and chemoresistant cancers” (THE TRUSTEES OF PRINCETON UNIVERSITY, priority 2018, dated 2024).

For this assay, the target named is T1, ALDH1a3 (Homo sapiens, UniProt P47895).
T1 construct: lentiviral vectors containing either the vector backbone or full-length human Aldh1a3; expressed in transfected cells; host or cells: SUM159-M1a (A1) and SUM159 (A7) breast cancer cells, lentiviral pLex vector, puromycin selection
T1 sequence (P47895 1-512): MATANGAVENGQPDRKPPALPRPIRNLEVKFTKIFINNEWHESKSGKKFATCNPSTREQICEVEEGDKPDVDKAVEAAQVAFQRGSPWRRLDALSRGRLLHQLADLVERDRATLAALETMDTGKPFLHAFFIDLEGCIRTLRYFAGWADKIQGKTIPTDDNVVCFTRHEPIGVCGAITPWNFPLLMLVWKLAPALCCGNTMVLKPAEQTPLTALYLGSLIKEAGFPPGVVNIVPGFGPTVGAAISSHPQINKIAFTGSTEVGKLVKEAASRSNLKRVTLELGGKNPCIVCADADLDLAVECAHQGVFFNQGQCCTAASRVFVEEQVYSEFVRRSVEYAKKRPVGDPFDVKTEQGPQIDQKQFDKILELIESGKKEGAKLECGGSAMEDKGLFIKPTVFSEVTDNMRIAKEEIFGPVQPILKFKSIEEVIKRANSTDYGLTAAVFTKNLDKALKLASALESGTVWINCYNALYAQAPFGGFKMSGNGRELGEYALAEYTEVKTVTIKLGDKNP
The experiment in a line: ALDEFLUOR assay in SUM159-M1a-Aldh1a3 cells (flow cytometry). The conditions noted are these: for inhibition at 0.1 µM / Percent of Cells Positive for ALDEFLUOR at 100 nM: SUM159-M1a-Aldh1a3 cells, compound at 100 nM; for inhibition at 0.1 µM: read-out: Inhibitory Activity at 100 nM (%). It is filed as cell-based. As for the experimental part: Cells were counted, centrifuged and resuspended at 1,000,000 cells/mL in ALDEFLUOR™ buffer (Stemcell Technologies). ALDEFLUOR™ substrate (Stemcell Technologies, 1:200) and test compound or 1 mM DEAB were added to cell suspension and incubated at 37° C. for 45 minutes with vortexing every 15 minutes. Cells were centrifuged and resuspended in ALDEFLUOR™ buffer with DAPI at 5 μg/mL. Samples were analyzed with the BD LSR2 flow cytometry platform. Gating was performed using DEAB as a negative control.
Gating for background fluorescence was performed using 1 millimolar DEAB as a negative control.
The [inh-min] threshold was set at the lower bound of two standard deviations of control samples, while the IC50 threshold was set at 50% of the average of control samples.
High activity was gated at the 99th percentile of cells at a MBE1.5 concentration of 10 nanomolar. The [inh-min] threshold was set at the lower bound of two standard deviations of control samples.
An ALDEFLUOR™ assay was also used to assess the relative activity of several compounds described herein against SUM159-M1a-Aldh1a3 cells. The activity of several compounds in the assay at a concentration of 100 nM is reported in Table 1, along with the chemical structure and compound name associated with each compound.

For `Cc1ccc(C(=O)Nc2ccc3c(c2)CCC(=O)N3)c(C)c1` [MBE3.2, 2,4-dimethyl-N-(2-oxo-1,2,3,4-tetrahydroquinolin-6-yl)benzamide], the inhibition at 0.1 µM is 3.3%. `CCc1cnccc1C(=O)Nc1ccc2c(c1)CCC(=O)N2` [MBE1.6, 3-ethyl-N-(2-oxo-1,2,3,4-tetrahydroquinolin-6-yl)isonicotinamide]: the “Percent of Cells Positive for ALDEFLUOR at 100 nM” value (from here on “Percent of Cells Positive”) turned out to be 13% and the inhibition at 0.1 µM was 83%. Moreover, the “inhibition of ALDH1a3 activity (FIG. 1A)” value (compounds at 100 nM) is given as “high-affinity compounds for the inhibition of ALDH1a3 activity”. As to `Cc1ccc(C)c(CNc2ccc3c(c2)CCC(=O)N3)c1` [MBE2, 6-((2,5-dimethylbenzyl)amino)-3,4-dihydroquinolin-2(1H)-one], the inhibition at 0.1 µM was found to be 45%. In the case of `Cc1ccc(C(=O)Nc2ccc3c(c2)CCC(=O)N3)cc1C` [MBE3.1, 3,4-dimethyl-N-(2-oxo-1,2,3,4-tetrahydroquinolin-6-yl)benzamide], the inhibition at 0.1 µM stood at 0.6%.

As to `O=C1CCc2cc(NCc3ccccc3)ccc2N1` [MBE3.4, 6-(benzylamino)-3,4-dihydroquinolin-2(1H)-one], the inhibition at 0.1 µM is 11%. Take `O=C1CCc2cc(NCc3ccc[nH]3)c(F)cc2N1` [MBE3.8, 6-(((1H-pyrrol-2-yl)methyl)amino)-7-fluoro-3,4-dihydroquinolin-2(1H)-one]: the “Percent of Cells Positive” value came to 75% and the inhibition at 0.1 µM was found to be 2%. For `Cc1ccccc1C(=O)Nc1ccc2c(c1)CCC(=O)N2` [MBE3.3, 2-methyl-N-(2-oxo-1,2,3,4-tetrahydroquinolin-6-yl)benzamide], the inhibition at 0.1 µM is 42%. As for `O=C1CCc2cc(NC(=O)c3ccncc3)c(F)cc2N1` [MBE1.2, N-(7-fluoro-2-oxo-1,2,3,4-tetrahydroquinolin-6-yl)isonicotinamide], the inhibition at 0.1 µM was determined as 8%. As to `Cc1cncc(C(=O)Nc2cc3c(cc2F)NC(=O)CC3)c1` [MBE3.6, N-(7-fluoro-2-oxo-1,2,3,4-tetrahydroquinolin-6-yl)-5-methylnicotinamide], the “Percent of Cells Positive” value is reported as 55% and the inhibition at 0.1 µM amounted to 29%. On to `CC(C)Cc1ccccc1C(=O)Nc1cc2c(cc1F)NC(=O)CC2` [MBE1.5C, N-(7-fluoro-2-oxo-1,2,3,4-tetrahydroquinolin-6-yl)-2-isobutylbenzamide], for which the “relative potency, ALDEFLUOR activity (FIG. 12)” value (concentration of 10 nM, compared to DMSO or DEAB-treated cells) is on record as “nearly twice as potent as MBE 1.5, MBE 1.5A or MBE 1.5D”. For `O=C1CCc2cc(NC(=O)c3ccncc3F)c(F)cc2N1` [MBE3.5, 3-fluoro-N-(7-fluoro-2-oxo-1,2,3,4-tetrahydroquinolin-6-yl)isonicotinamide], the “Percent of Cells Positive” value is 63% and the inhibition at 0.1 µM amounted to 18%.
